pIC50: −log10 of the molar value.
Tests used:
M. fulvum = assay: Inhibition of growth of Microsporum fulvum by plant defensins (microtitre A595 antifungal assay); type: cell-based; conditions: ½ strength PDB, 30° C., A595
Method: (§1) The inhibitory effects of the plant defensins on the growth of Trichophyton rubrum, T. interdigitale, Microsporum fulvum and C. albicans (all obtained from the National Mycology Reference Centre, South Australia Pathology at the Women's and Children's Hospital, Adelaide, Australia) are measured essentially as described by Broekaert et al. (1990) FEMS Microbiol Lett 69:55-59.
(§2) Spores of T. rubrum, T. interdigitale and M. fulvum are isolated from sporulating fungus growing on ½ strength Sabouraud dextrose agar. Spores were removed from the plates by the addition of ½ strength potato dextrose broth (PDB). C. albicans cells are grown in Yeast Peptone Broth (YPD) for 16 h. Spore and cell concentrations are measured using a hemocytometer.
(§3) Antifungal assays are conducted in 96 well microtitre plates essentially as herein described. Wells are loaded with 20 μL of filter sterilized (0.22 Ξ m syringe filter, Millipore) defensin (10× stock for each final concentration) or water and 80 μL of 5×10^4 spores/mL (T. rubrum, T. interdigitale, M. fulvum) or 5,000 cells/mL (C. albicans) in ½ strength PDB. The plates are incubated at 30° C. Fungal growth is assayed by measuring optical density at 595 nm (A595) using a microtitre plate reader (SpectraMax Pro M2; Molecular Devices. Growth is allowed to proceed until the optical density (OD) of the fungus in the absence of any test defensin reached an OD of 0.2. Each test is performed in duplicate.

E. coli = type: cell-based, Escherichia coli
In short: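 Overnight LB cultures were diluted to OD600 0.01 in Mueller-Hinton broth and exposed to defensins at 20, 10, 5, 2.5, 1.25, 0.625 or 0.3125 μM. OD595 was read at time zero and after 18 h at 37 °C to assess growth.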

C. tropicalis = assay: Inhibition of growth of C. tropicalis, Example 2 antifungal assay; type: cell-based; conditions: ½ strength PDB, 30° C., A595
Method: (§4) The inhibitory effects of the plant defensins on the growth of Candida albicans, Aspergillus fumigatus (obtained from the National Mycology Reference Centre, South Australia Pathology at the Women's and Children's Hospital, Adelaide, Australia), C. glabrata, C. tropicalis, A. flavus, A. niger, A. fumigants, Cryptococcus neoformans and C. gattii (obtained from Dee Carter, University of Sydney, New South Wales, Australia) are measured essentially as described by Broekaert et al. (1990) FEMS Microbiol Lett 69:55-59.
as §2, with “A. flavus. A. niger” for “T. rubrum, T. interdigitale”, “A. fumigatus” for “M. fulvum”, “albicans, C. glabrata, C. tropicalis, C. neoformans and C. gattii” for “albicans”
as §3, with “μm” for “Ξ m”, “(A. flavus, A. niger, A. fumigatus),” for “(T. rubrum, T. interdigitale, M. fulvum) or”, “albicans, C. glabrata, C. tropicalis) or 1×10^6 cells/mL (C. neoformans, C. gattii)” for “albicans)”

T. albicans = assay: Inhibition of growth of C. albicans by plant defensins, Example 1 (microtitre A595 antifungal assay); type: cell-based; conditions: Table 3; ½ strength PDB, 30° C., A595
Method: as §1, §2, §3

T. interdigitale = assay: Inhibition of growth of T. interdigitale by plant defensins (microtitre A595 antifungal assay); type: cell-based, Trichophyton interdigitale; conditions: ½ strength PDB, 30° C.
Method: as §1, §2, §3

A. flavus = assay: Inhibition of growth of A. flavus, Example 2 antifungal assay; type: cell-based; conditions: ½ strength PDB, 30° C., A595
Method: as §4
as §2, with “A. flavus. A. niger” for “T. rubrum, T. interdigitale”, “A. fumigatus” for “M. fulvum”, “albicans, C. glabrata, C. tropicalis, C. neoformans and C. gattii” for “albicans”
as §3, with “μm” for “Ξ m”, “(A. flavus, A. niger, A. fumigatus),” for “(T. rubrum, T. interdigitale, M. fulvum) or”, “albicans, C. glabrata, C. tropicalis) or 1×10^6 cells/mL (C. neoformans, C. gattii)” for “albicans)”

C. glabrata = assay: Inhibition of growth of C. glabrata, Example 2 antifungal assay; type: cell-based; conditions: ½ strength PDB, 30° C., A595
Method: as §4
as §2, with “A. flavus. A. niger” for “T. rubrum, T. interdigitale”, “A. fumigatus” for “M. fulvum”, “albicans, C. glabrata, C. tropicalis, C. neoformans and C. gattii” for “albicans”
as §3, with “μm” for “Ξ m”, “(A. flavus, A. niger, A. fumigatus),” for “(T. rubrum, T. interdigitale, M. fulvum) or”, “albicans, C. glabrata, C. tropicalis) or 1×10^6 cells/mL (C. neoformans, C. gattii)” for “albicans)”

C. neoformans = assay: Inhibition of growth of Cryptococcus neoformans, Example 2 antifungal assay; type: cell-based; conditions: ½ strength PDB, 30° C., A595
Method: as §4
as §2, with “A. flavus. A. niger” for “T. rubrum, T. interdigitale”, “A. fumigatus” for “M. fulvum”, “albicans, C. glabrata, C. tropicalis, C. neoformans and C. gattii” for “albicans”
as §3, with “μm” for “Ξ m”, “(A. flavus, A. niger, A. fumigatus),” for “(T. rubrum, T. interdigitale, M. fulvum) or”, “albicans, C. glabrata, C. tropicalis) or 1×10^6 cells/mL (C. neoformans, C. gattii)” for “albicans)”

T. rubrum = assay: Inhibition of growth of Trichophyton rubrum by plant defensins (microtitre A595 antifungal assay); type: cell-based; conditions: ½ strength PDB, 30° C.
Method: as §1, §2, §3

A. niger = assay: Inhibition of growth of A. niger, Example 2 antifungal assay; type: cell-based; conditions: ½ strength PDB, 30° C., A595
Method: as §4
as §2, with “A. flavus. A. niger” for “T. rubrum, T. interdigitale”, “A. fumigatus” for “M. fulvum”, “albicans, C. glabrata, C. tropicalis, C. neoformans and C. gattii” for “albicans”
as §3, with “μm” for “Ξ m”, “(A. flavus, A. niger, A. fumigatus),” for “(T. rubrum, T. interdigitale, M. fulvum) or”, “albicans, C. glabrata, C. tropicalis) or 1×10^6 cells/mL (C. neoformans, C. gattii)” for “albicans)”

[1] = tested on: clinical isolates of T. rubrum (14-01, 14-02, 14-03, 13-04); assay: Inhibition of growth of clinical isolates of T. rubrum (FIG. 2); type: cell-based, Trichophyton rubrum; conditions: all four clinical isolates
Method: (§5) FIG. 2(A) is a graphical representations showing the effect of the plant defensins NaD1 (dashed line) and HXL008 (solid line) on the growth of clinical isolate 14-01 of Trichophyton rubrum in vitro. Fungal growth was measured by the increase in optical density at 595 nm (A595) achieved 72 hours after inoculation of the growth medium and is plotted as a percentage of growth relative to a no-protein control (vertical axis) versus protein concentration (μg/mL, horizontal axis).
as §5, with “2(B)” for “2(A)”, “representation” for “representations”, “14-02” for “14-01”, “axis). […]” for “axis).”
Antifungal assays are conducted in 96 well microtitre plates essentially as herein described. […] Fungal growth is assayed by measuring optical density at 595 nm (A595) using a microtitre plate reader (SpectraMax Pro M2; Molecular Devices. Growth is allowed to proceed until the optical density (OD) of the fungus in the absence of any test defensin reached an OD of 0.2. Each test is performed in duplicate.

Substance: HXL008: Class I plant defensin from Picramnia pentandra (KVCTKPSKFFKGLCGTDGACTTACRKEGLHSGYCQLKGFLNSVCVCRKHC; HXL008 Picramnia pentandra)
- IC50 against M. fulvum (M. fulvum): 7 µg/mL
- pIC50 (E. coli; Mueller-Hinton Broth, 37° C., 18 hours, up to 20 μM, read-out: IC50 against E. coli): < 4.70
- Inhibition of growth of E. coli (E. coli; at the concentrations tested (0.3125-20 μM)): did not inhibit the growth
- IC50 against C. tropicalis (C. tropicalis): 7 µg/mL
- IC50 against T. albicans (T. albicans): 20 µg/mL
- IC50 against T. interdigitale (T. interdigitale): 3.5 µg/mL
- IC50 against A. flavus (A. flavus): 40 µg/mL
- IC50 against C. glabrata (C. glabrata): 20 µg/mL
- IC50 against C. neoformans (C. neoformans): 2.5 µg/mL
- IC50 against T. rubrum (T. rubrum): 3 µg/mL
- IC50 against A. niger (A. niger): 42 µg/mL
- Growth inhibition of T. rubrum clinical isolates compared with NaD1 [1]: inhibited growth at a lower concentration than NaD1

Source: patent US20180193412A1, “Method of In Vivo Treatment” (Hexima Limited, priority 2015, published 2018)
